Experimental data from patent publication US9403829B2, “Pharmaceutical compositions of 7-(6-(2-hydroxypropan-2-yl)pyridin-3-yl)-1-((trans)-4-methoxycyclohexyl)-3,4-dihydropyrazino [2,3-b]pyrazin-2(1H)-one, a solid form thereof and methods of their use” (Signal Pharmaceuticals, LLC, priority 2011, dated 2016).
Read-outs that look alike come from different tables or passages of the source.

Assay: Phase 1 food effect study (Part 2), single 20-mg oral dose of Compound A tablet, fed vs fasted
Format: in vivo, human
Conditions: for CL/F / AUC(0-inf) / Cmax / half-life / AUC(0-t) / Vd/F: geometric mean; for Tmax / AUC(0-inf) / Cmax / half-life / AUC(0-t) / Vd/F: male, human, plasma, 20 mg; for AUC(0-t): read-out: AUC0-24; for Vd/F: read-out: Vz/F
Procedure: The primary objectives of this study are: to characterize the biotransformation and excretion of Compound A following a single 20 mg oral dose of Compound A capsule containing a microtracer of [^14C]-Compound A solution in healthy male subjects (Part 1) and to evaluate the effect of a high-fat meal on the pharmacokinetics (PK) of Compound A following a single oral 20-mg dose of Compound A tablet (Part 2).
Part 2 design: Part 2 will be a 2-period crossover study; in Period 1, subjects (n=12) will be randomized to receive either an oral 20 mg dose of Compound A tablet (Treatment B) under fed (n=6) or fasted (n=6) conditions. In Period 2, subjects will receive Treatment B under converse conditions based on treatment assignment in Period 1. After screening, subjects (n=12) eligible for participation in the study will return to the study center on Day −1 for baseline assessments. Subjects who continue to be qualified for participation in the study will be randomized and enrolled in the study on the morning of Day 1. Subjects (n=6) will be enrolled and randomized to receive Treatment B under fed or fasted conditions on the morning of Day 1 after fasting for at least 8 hours. Fed subjects will be served a standard high fat meal breakfast, or its equivalent, that must be consumed within 30 minutes from serving. Dosing must occur 30 minutes (+5 minutes) after serving a subject breakfast. All subjects (fed and fasted) will fast (not to consume any food) until 4 hours post dose. Water will be allowed during the fasting period. Subjects will be domiciled at the study center from Day −1 until the morning of Day 5 of each period. Subjects will be discharged from the study center on the morning of Day 5 upon satisfactory safety review and completion of study-related procedures. Safety and tolerability data will be monitored and collected following each dosing period. Periods 1 and 2 will be separated by a washout period of at least 7 days (no more than 10 days) from prior dose to the next dose. In certain instances, a longer washout may be acceptable if previously agreed to.
Serial blood samples (10 mL) will be collected at predose (0 hour) and at 0.5, 1, 2, 3, 6, 12, 24, 48, 72 and 96 hours post dose for the determination of plasma concentrations of Compound A and the O-desmethyl metabolite of Compound A. Safety will be monitored throughout the study; safety evaluations will include AE reporting, physical examinations, vital sign measurements, ECG, and clinical laboratory safety tests. Concomitant medications will be assessed and recorded throughout the study as well. In addition, during the subjects' stay-in-the clinic (i.e., confinement period), fasting plasma glucose levels will be monitored as part of the clinical laboratory safety tests. For Parts 1 and 2, all subjects will return to the clinic within 7 to days after the last dose for follow up safety assessments. In the event that a subject discontinues prematurely from the study, every reasonable effort should be made (and documented) to ensure that all procedures and evaluations scheduled for the follow-up visit are performed at the time of discontinuation or a follow-up visit should be scheduled within 7 to days from the discontinuation day.
Part 2 dosing: In Part 2, subjects will fast overnight for at least 8 hours prior to Compound A administration. On the morning of Day 1, each subject will receive a 20-mg tablet of Compound A orally. Subjects randomized to receive Compound A under fed conditions will be a served a standard high fat meal (breakfast).
The standard high fat meal or its equivalent must be consumed within minutes of serving. Dosing must occur 30 minutes (+5 minutes) after serving the meal. The tablet will be administered with approximately 240 mL of non-carbonated, room temperature water. After dosing, subjects will continue to fast until 4 hours after dosing.

[1] = fed vs fasted, healthy adult males, 20 mg Compound A
[2] = po, Fasted (n = 11), single 20-mg oral dose of Compound A tablet
[3] = po, Fed (n = 11, high fat meal), single 20-mg oral dose of Compound A tablet

- CL/F (Fasted (n = 11), single 20-mg oral dose of Compound A tablet): 2.0 L/h
- CL/F (Fed (n = 11, high fat meal), single 20-mg oral dose of Compound A tablet): 2.0 L/h
- decrease in Cmax with a high fat meal [1]: ~17%
- increase in overall exposure (AUCinf) with a high fat meal [1]: ~3%
- Tmax (oral, fed vs fasted, healthy adult males, 20 mg Compound A, read-out: delay in Tmax with a high fat meal): 3 h
- Tmax (po, Fasted (n = 11), single 20-mg oral dose of Compound A tablet, healthy adult males, median, read-out: Tmax): 3 h
- AUC(0-inf) [2]: 9830 ng·h/mL
- Cmax [2]: 425 ng/mL
- half-life [2]: 14.8 h
- AUC(0-t) [2]: 6400 ng·h/mL
- Vd/F [2]: 34.7 L
- AUC(0-inf) [3]: 10100 ng·h/mL
- Cmax [3]: 364 ng/mL
- half-life [3]: 14.9 h
- AUC(0-t) [3]: 6270 ng·h/mL
- Vd/F [3]: 42.6 L
- Tmax (po, Fed (n = 11, high fat meal), single 20-mg oral dose of Compound A tablet, median, read-out: Tmax): 6 h
SMILES: CC(C)(O)c1ccc(-c2cnc3c(n2)N([C@H]2CC[C@H](O)CC2)C(=O)CN3)cn1 [O-Desmethyl metabolite, 1-((1r,4r)-4-hydroxycyclohexyl)-7-(6-(2-hydroxypropan-2-yl)pyridin-3-yl)-3,4-dihydropyrazino[2,3-b]pyrazin-2(1H)-one]
